Literature values, collected in patent US20080160083A1, “COMPOSITION AND METHOD FOR TREATMENT OF PREMENSTRUAL SYMPTOMS” (priority 2007, published 2008).

Key:
[1] = all adults; Institute of Medicine 1998
[2] = women taking daily vitamin B6 supplements for PMS whose blood levels of B6 were above normal; Dalton, Lancet 1985

Cc1ncc(CO)c(CO)c1O [vitamin B6, 4,5-bis(hydroxymethyl)-2-methylpyridin-3-ol]
upper tolerable intake level (UL) [1]: 100 mg per day | neuropathy present (number of women) [2]: 23 of 58
